What was measured:
[1] = Log D7.4 measurement (1-octanol/PBS buffer); assay type: physicochemical; conditions: pH 7.4, n=3
Method: Partition coefficient was measured by mixing the [^18F]FS1P1 sample with 3 mL each of 1-octanol and buffer that is 0.1 M phosphate and pH equals 7.4 in a test tube. The mixture in the test tube was vortexed for 20 sec followed by centrifugation for 1 min at room temperature. Then 2 mL of the organic layer was transferred to a second test tube, and 1 mL of 1-octanol and 3 mL of PBS buffer were added. The resulting mixture was vortexed for 20 sec, followed by centrifugation for 1 min at room temperature. Then 1 mL of the organic and aqueous layer were taken separately for measurement. The radioactivity content values (count per minute) of two samples (1 mL each) from the 1-octanol and buffer layers were counted using a gamma counter. The partition coefficient Log D7.4 was determined by calculating as the decimal logarithm the ratio of cpm/mL between 1-octanol and PBS buffer. The measurements were repeated three times. The value of the partition coefficient is 2.62±0.31.

[2] = Radiometabolite analysis of nonhuman primate plasma samples; assay type: in vivo, macaque; conditions: for percentage of the parental radiotracer of total radioactivity: macaque plasma
Method: HPLC radiometabolite analysis of the macaque plasma samples collected at different time points post-injection of [^18F]FS1P1 was performed as previously reported (H. Liu, et al., Mol. Imaging Biol., 2020, 22, 1362-1369.). A male macaque (˜10 kg) was intravenously injected with ˜0.35 GBq of [^18F]FS1P1. […] Plasma (400 μL) was then collected and mixed with 1.2 mL ice-cold acetonitrile to deproteinize. […] The eluted fractions were collected at one-minute intervals for a total of 16 minutes, the radioactivity of each fraction collection was counted in an automated gamma counter (Beckman, Brea, CA), and results were corrected by background radioactive counts and physical decay. The chromatography was regenerated represented by the percentage that was calculated by radioactivity count of every minute collection divided by the total injection amount on the HPLC system and multiplied by 100.

[3] = target: T1, S1P1 (Rattus norvegicus, UniProt P48303); assay: In vitro autoradiography of rat spinal cord and brain sections with CS1P1 blocking; assay type: binding; conditions: blocked by CS1P1 (5 μM), in words
T1 construct: conducted on rat spinal cord and brain section incubated with [^18F]FS1P1; from tissue; host or cells: rat brain (cortex, hippocampus) and spinal cord sections
T1 sequence (P48303 whole entry): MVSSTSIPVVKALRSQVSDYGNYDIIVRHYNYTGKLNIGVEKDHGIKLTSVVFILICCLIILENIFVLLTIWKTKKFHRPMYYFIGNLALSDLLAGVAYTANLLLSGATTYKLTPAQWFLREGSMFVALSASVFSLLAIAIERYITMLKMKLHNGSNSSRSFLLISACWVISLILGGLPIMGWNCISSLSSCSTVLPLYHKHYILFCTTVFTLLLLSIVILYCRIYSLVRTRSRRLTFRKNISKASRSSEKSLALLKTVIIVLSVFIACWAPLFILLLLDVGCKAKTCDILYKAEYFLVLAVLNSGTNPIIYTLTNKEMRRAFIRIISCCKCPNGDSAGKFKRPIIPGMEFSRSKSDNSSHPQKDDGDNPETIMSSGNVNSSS

[4] = MicroPET brain study in cynomolgus macaque; conditions: macaque brain
Method: Using a Focus 220 microPET scanner to collect dynamic scans for 2 hours after intravenous injection of ˜0.35 GBq dose into male macaques. Radiometabolites were measured from arterial blood samples collected at 5, 15, 30, and 60 min post-injection of radiotracer. The HPLC eluent was collected, and fractions were counted in a gamma counter.
Male macaques (˜10 kg) were used for PET imaging data acquisition with a microPET Focus 220 scanner (Siemens Inc., Knoxville, TN). Animals were anesthetized using ketamine and glycopyrrolate and maintained with inhalation of isoflurane. Core temperature was kept at 37° C. with a heated water blanket. The head was secured in a customized head holder. […] Emission data were corrected for dead time, scatter, and attenuation and then reconstructed. […] Predefined brain regions of interest from the template were applied to the co-registered PET image to obtain regional time-activity curves. The measurement of the brain uptake of radiotracer was standardized to body weight and the dose of radioactivity injected to yield a standardized uptake value (SUV).
The brain uptakes of these tracers were measured by Focus 220 microPET scanner to collect dynamic scans for 2 hours after intravenous injection of ˜0.35 GBq dose into male cynomolgus macaques (8-9 kg).

## Cc1ccccc1-c1ccc(-c2nc(-c3ccc(CN(C)CCC(=O)O)c([18F])c3)no2)cc1C(F)(F)F [[^18F]FS1P1]
[1]
  Log D7.4: 2.62±0.31
  logD: 2.62 ± 0.31
[2]; 5, 15, 30, and 60 min post injection, in words
  radiometabolites in macaque plasma: No major metabolite was detected
[2]; 5 min post-injection
  percentage of the parental radiotracer of total radioactivity: 96%
[2]; 15 min post-injection
  percentage of the parental radiotracer of total radioactivity: 96%
[2]; 30 min post-injection
  percentage of the parental radiotracer of total radioactivity: 94%
[2]; 60 min post-injection
  percentage of the parental radiotracer of total radioactivity: 88%
[3]
  autoradiography signal and blocking: strong signal, which was blocked
[4]; 120 min post-injection
  brain uptake, standard uptake value (SUV): ~2.3
[4]; from 20 to 120 min post-injection
  brain uptake, maximum SUV value: ~2.3

Reference: patent US20240228448A1 (Washington University, priority 2021, published 2024)
